Literature values, collected in patent publication US11707478B2, “Method for increasing uridine concentration in blood plasma” (N.V. Nutricia, priority 2016, dated 2023).

How the values were obtained:
[1] = oral administration of uridine, Klubes 1986
CNT 1 = biological target: T1, CNT 1 (Homo sapiens, UniProt O00337); settings: CNT 1 in the gut and in many other cells; read-out: apparent Km value of main transporter
T1 sequence (O00337 1-649): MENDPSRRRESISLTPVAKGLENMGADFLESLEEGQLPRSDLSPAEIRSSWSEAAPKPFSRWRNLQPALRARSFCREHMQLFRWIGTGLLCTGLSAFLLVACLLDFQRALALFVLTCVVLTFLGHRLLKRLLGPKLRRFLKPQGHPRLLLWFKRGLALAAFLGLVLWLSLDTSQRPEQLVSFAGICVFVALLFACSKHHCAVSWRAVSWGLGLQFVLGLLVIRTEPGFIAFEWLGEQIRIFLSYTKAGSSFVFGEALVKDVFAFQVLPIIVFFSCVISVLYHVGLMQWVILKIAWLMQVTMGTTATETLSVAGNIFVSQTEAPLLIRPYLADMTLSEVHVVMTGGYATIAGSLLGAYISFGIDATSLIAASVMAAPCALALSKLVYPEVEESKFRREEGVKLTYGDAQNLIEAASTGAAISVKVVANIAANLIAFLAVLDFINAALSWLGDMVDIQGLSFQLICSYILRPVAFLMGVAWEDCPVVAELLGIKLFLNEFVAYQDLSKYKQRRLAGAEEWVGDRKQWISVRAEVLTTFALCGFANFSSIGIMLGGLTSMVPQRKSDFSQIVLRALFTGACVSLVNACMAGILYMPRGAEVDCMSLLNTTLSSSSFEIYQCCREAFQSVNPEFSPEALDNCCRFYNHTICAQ

bioavailability [1]: about 7%
Km (CNT 1): 6 to 16 µM
Structure (SMILES): O=c1ccn([C@@H]2O[C@H](CO)[C@@H](O)[C@H]2O)c(=O)[nH]1 [Uridine, 1-[(2R,3R,4S,5R)-3,4-dihydroxy-5-(hydroxymethyl)oxolan-2-yl]pyrimidine-2,4-dione]
